# Measured values as given in patent US11261213B2, “Crystalline bis- and tris-hydrochloride salt of elamipretide” (Stealth BioTherapeutics Inc., priority 2018, dated 2022).
# Where a name gives a salt, the structure may show the parent alone. Read-outs that look alike come from different tables or passages of the source. Residues, ends and D or L forms follow the SMILES beside them.
# Tests used:
# [1] = Effect of drying and humidity exposure on crystalline solid (XRPD); type: physicochemical
# Description: Powder x-ray diffraction (XRPD) experiments were performed on a Rigaku MiniFlex 600 equipped with a Cu Kα radiation source (wavelength of x-rays 1.54 Å), and a scintillation detector. Samples were prepared on Si zero-return wafers. Scans were performed from 2θ 4 to 30 degrees over a step size of 0.05 over thirty minutes with cathode ray tube voltage and current 40 kV and 15 mA, respectively.
# The crystalline solid was dried at 50 C under vacuum overnight, and analyzed by XRPD. […] Furthermore, the dry solid was exposed to about 95% relative humidity at room temperature for 24 hours followed by XRPD analysis. […] It should be noted that 3-HCl salt of MTP-131 deliquesces at more than 70% relative humidity.
# [2] = physchem
# [3] = Gravimetric vapour sorption (GVS); type: physicochemical
# Description: Approximately 15 mg of sample was placed into a mesh vapour sorption balance pan and loaded into an IGASorp Moisture Sorption Analyser balance by Hiden Analytical. The sample was subjected to a ramping profile from 40-90% relative humidity (RH) at 10% increments, maintaining the sample at each step until a stable weight had been achieved (98% step completion). After completion of the sorption cycle, the sample was dried using the same procedure to 0% RH, then subjected to a second ramping profile from 0-90% relative humidity. After completion of the second sorption cycle, the sample was dried using the same procedure to 0% RH, and finally taken back to the starting point of 40% RH. The weight change during the sorption/desorption cycles were plotted, allowing for the hygroscopic nature of the sample to be determined.
# [4] = physchem; conditions: water
# Description: The solubility of the crystalline solid was assessed qualitatively in water.
smiles,measurement,setting,value
Cc1cc(O)cc(C)c1C[C@H](NC(=O)[C@H](N)CCCNC(=N)N)C(=O)N[C@@H](CCCCN)C(=O)N[C@@H](Cc1ccccc1)C(N)=O [MTP-131 HCl] (HELM PEPTIDE1{[dR].[Cc1cc(O)cc(C)c1C[C@H](N[*:1])C(=O)[*:2]].K.F.[am]}$$$$V2.0),Relative humidity at which the salt deliquesces,[1],more than 70 % relative humidity
same,solubility,[2],≤ 10000 µg/mL
same,solubility,"[2]; 2-Propanol, Solubility at 50° C.",< 10000 µg/mL
same,solubility,"[2]; 2-Propanol:Water (95:5 v/v), Solubility at 50° C., 2-Propanol:Water (95:5 v/v)",< 10000 µg/mL
same,solubility,"[2]; 2-Propanol:Water (99:1 v/v), Solubility at 50° C., 2-Propanol:Water (99:1 v/v)",< 10000 µg/mL
same,solubility,"[2]; Acetone, Solubility at 50° C.",< 10000 µg/mL
same,solubility,"[2]; Acetone:Water (95:5 v/v), Solubility at 50° C., Acetone:Water (95:5 v/v)",< 10000 µg/mL
same,solubility,"[2]; Acetonitrile:DMSO (85:15 v/v), Solubility at 50° C., Acetonitrile:DMSO (85:15 v/v)",< 10000 µg/mL
same,solubility,"[2]; Acetonitrile:Water (95:5 v/v), Solubility at 50° C., Acetonitrile:Water (95:5 v/v)",< 10000 µg/mL
same,solubility,"[2]; Acetonitrile:Water (99:1 v/v), Solubility at 50° C., Acetonitrile:Water (99:1 v/v)",< 10000 µg/mL
same,solubility,"[2]; DCM:DMSO (85:15 v/v), Solubility at 50° C., DCM:DMSO (85:15 v/v)",< 10000 µg/mL
same,solubility,"[2]; Dichloromethane, Solubility, carried out at 35° C. (footnote)",< 10000 µg/mL
same,solubility,"[2]; Ethanol, Solubility at 50° C.",10000 µg/mL
same,solubility,"[2]; Ethanol:DMSO (95:5% v/v), Solubility at 50° C., Ethanol:DMSO (95:5% v/v)",~33000 µg/mL
same,solubility,"[2]; Ethanol:Water (95:5 v/v), Solubility at 50° C., Ethanol:Water (95:5 v/v)",~67000 µg/mL
same,solubility,"[2]; Methanol, Solubility at 50° C.",> 200000 µg/mL
same,solubility,"[2]; Methanol:Water (95:5 v/v), Solubility at 50° C., Methanol:Water (95:5 v/v)",> 200000 µg/mL
same,solubility,"[2]; THF:Water (95:5% v/v), Solubility at 50° C., THF:Water (95:5% v/v), (separated)",< 10000 µg/mL
same,solubility,"[2]; THF:Water (99:1 v/v), Solubility at 50° C., THF:Water (99:1 v/v)",< 10000 µg/mL
same,solubility,"[2]; Trifluoroethanol, Solubility at 50° C.",< 10000 µg/mL
same,Hygroscopicity by GVS,[3],highly hygroscopic
same,GVS mass increase,[3]; between 40-90% RH,ca. 30%
same,State of solid after GVS,[3]; ramping up to 90% RH,deliquesced and adhered to the basket
Cc1cc(O)cc(C)c1C[C@H](NC(=O)[C@H](N)CCCNC(=N)N)C(=O)N[C@@H](CCCCN)C(=O)N[C@@H](Cc1ccccc1)C(N)=O [crystalline solid] (HELM PEPTIDE1{[dR].[Cc1cc(O)cc(C)c1C[C@H](N[*:1])C(=O)[*:2]].K.F.[am]}$$$$V2.0),Physical integrity after humidity exposure,"[1]; about 95% relative humidity, room temperature, 24 hours",physically kept its integrity
same,XRPD pattern after drying (stability upon drying),[1]; dried at 50 C under vacuum overnight,No changes were observed
same,XRPD after humidity exposure,"[1]; dry solid, about 95% relative humidity, room temperature, 24 hours",remained unchanged
same,solubility,[4],~60000 µg/mL
